Source: patent publication US20260201008A1, “SECRETIN-DERIVED GLP1R SELECTIVE AGONISTS” (GUBRA A/S, priority 2023, published 2026)
Where two headings read alike, the source gives them in different places. Numbered stars: 1 amine (or outer) side, 2 acyl side, 3 side chain; on linkers, the order of the positions; unused ones are H or OH. Square brackets hold non-standard residues; d marks the D form. Side chains are listed from the residue outwards. Ends that are not written are not given here. Peptide text beside a SMILES is read from it. * marks the point of attachment. C20 diacid = O=C(O)CCCCCCCCCCCCCCCCCCC(=O)*; γGlu = O=C(O)[C@H](CCC(=O)[*:2])N[*:1]; AEEA = NCCOCCOCC(=O)O; Aib = CC(C)(N)C(=O)O

B1: SEQ ID NO: 186 (peptide)
peptide: H[Aib]EGTFTSDWSRLLEGAALQRFIQWLV-NH2
modifications: N-terminus assumed
SMILES: CC[C@H](C)[C@H](NC(=O)[C@H](Cc1ccccc1)NC(=O)[C@H](CCCNC(=N)N)NC(=O)[C@H](CCC(N)=O)NC(=O)[C@H](CC(C)C)NC(=O)[C@H](C)NC(=O)[C@H](C)NC(=O)CNC(=O)[C@H](CCC(=O)O)NC(=O)[C@H](CC(C)C)NC(=O)[C@H](CC(C)C)NC(=O)[C@H](CCCNC(=N)N)NC(=O)[C@H](CO)NC(=O)[C@H](Cc1c[nH]c2ccccc12)NC(=O)[C@H](CC(=O)O)NC(=O)[C@H](CO)NC(=O)[C@@H](NC(=O)[C@H](Cc1ccccc1)NC(=O)[C@@H](NC(=O)CNC(=O)[C@H](CCC(=O)O)NC(=O)C(C)(C)NC(=O)[C@@H](N)Cc1c[nH]cn1)[C@@H](C)O)[C@@H](C)O)C(=O)N[C@@H](CCC(N)=O)C(=O)N[C@@H](Cc1c[nH]c2ccccc12)C(=O)N[C@@H](CC(C)C)C(=O)N[C@H](C(N)=O)C(C)C
B2: SEQ ID NO: 194 (peptide)
peptide: H[Aib]EGTFTSDYSRLLEGAALQRFIQWLV-NH2
modifications: N-terminus assumed
SMILES: CC[C@H](C)[C@H](NC(=O)[C@H](Cc1ccccc1)NC(=O)[C@H](CCCNC(=N)N)NC(=O)[C@H](CCC(N)=O)NC(=O)[C@H](CC(C)C)NC(=O)[C@H](C)NC(=O)[C@H](C)NC(=O)CNC(=O)[C@H](CCC(=O)O)NC(=O)[C@H](CC(C)C)NC(=O)[C@H](CC(C)C)NC(=O)[C@H](CCCNC(=N)N)NC(=O)[C@H](CO)NC(=O)[C@H](Cc1ccc(O)cc1)NC(=O)[C@H](CC(=O)O)NC(=O)[C@H](CO)NC(=O)[C@@H](NC(=O)[C@H](Cc1ccccc1)NC(=O)[C@@H](NC(=O)CNC(=O)[C@H](CCC(=O)O)NC(=O)C(C)(C)NC(=O)[C@@H](N)Cc1c[nH]cn1)[C@@H](C)O)[C@@H](C)O)C(=O)N[C@@H](CCC(N)=O)C(=O)N[C@@H](Cc1c[nH]c2ccccc12)C(=O)N[C@@H](CC(C)C)C(=O)N[C@H](C(N)=O)C(C)C

Tests used:
[1] = Fibril formation of crude library peptides (Thioflavin T); type: physicochemical; set-up: key: average ThT fluorescence emission at 480 nm (ex 450 nm), raw units; details: Physical stability of peptides
Method: (§1) Peptides were dissolved in buffers (50 mM sodium acetate at pH 4.0, or 50 mM sodium phosphate at pH 7.0) to 267 μM and incubated for 1-2 hours at room temperature. The samples were then divided into two replicates of 80 μl in a black 384 well plate (μ-clear, Greiner Bio-One) and mixed with Thioflavin T (ThT) to a final concentration of 4 μM. The plate was centrifuged for 2 min at 2000 rpm to remove air bubbles, sealed, and placed in a plate reader (CLARIOstar, BMG). Firstly, turbidity of the samples was measured as the absorbance at 600 nm. Secondly, the plate reader temperature was set to 40° C. and the fluorescence was measured every 10 min for 72 hours by exciting the ThT at 450 nm and measuring the emission at 480 nm. Samples were stressed by shaking the plate at 700 rpm (linear) for five minutes before every measurement, and fibril formation was determined as the average emission for each sample.

[2] = Turbidity of crude library peptides (absorbance at 600 nm); type: physicochemical; details: Physical stability of peptides
Method: as §1

[3] = biological target: GLP1R (Homo sapiens, UniProt P43220); assay: hGLP1R potency, cAMP accumulation in CHO-K1 cells stably overexpressing hGLP1R; type: cell-based; set-up: host or cells: CHO-K1; details: for SCTR EC50/GLP1R EC50 ratio: selectivity for hGLP1R over hSCTR, cAMP accumulation in CHO-K1 cells
GLP1R, sequence (P43220 24-463): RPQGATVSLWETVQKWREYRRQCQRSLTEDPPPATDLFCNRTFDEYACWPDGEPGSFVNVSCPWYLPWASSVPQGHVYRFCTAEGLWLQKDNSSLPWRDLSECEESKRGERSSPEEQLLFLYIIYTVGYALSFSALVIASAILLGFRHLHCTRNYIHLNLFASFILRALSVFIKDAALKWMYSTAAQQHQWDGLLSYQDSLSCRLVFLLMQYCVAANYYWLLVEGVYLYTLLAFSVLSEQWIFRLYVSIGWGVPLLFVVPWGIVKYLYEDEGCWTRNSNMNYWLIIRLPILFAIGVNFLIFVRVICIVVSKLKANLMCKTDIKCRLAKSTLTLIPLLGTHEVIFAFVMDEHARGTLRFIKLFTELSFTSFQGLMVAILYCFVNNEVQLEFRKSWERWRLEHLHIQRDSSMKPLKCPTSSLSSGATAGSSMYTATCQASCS
From the text: (§2) Crude library peptides are screened in 10-fold serial dilutions of 5 concentrations, n=1 time. Tip change is done for the first two serial dilutions. Compound starting concentration (top) will be adjusted throughout the study if needed.
(§3) Purified peptides are screened in 3-fold serial dilutions of 11 concentrations, n=2 times. Tip change is done for all serial dilutions. Compound starting concentration (top) will be adjusted throughout the study. If the top concentration is adjusted or a 5-fold difference in calculated EC50 values is observed, n is increased by 1. EC50 values were calculated by nonlinear regression using sigmoid concentration-response with variable slope.
(§4) A CHO-K1 cell line stably overexpressing the hGLP1R was obtained from Euroscreen (FAST-0145L), expanded, aliquoted and frozen. An aliquot was thawed and plated in DPBS with 0.05% casein and 0.5 mM IBMX as 2000 cells/well in a 384-well format. The cells were then immediately stimulated for 30 min at room temperature with graded doses of test compound using human GLP-1(7-36) (synthesized at Gubra) as a positive control. cAMP accumulation was measured using a Cisbio assay for Gs coupled receptors (cat. no. 62AM4PEC), where the assay reagents were added as per the manufacturer's instructions and time-resolved fluorescence energy transfer recorded after one hour on a CLARIOstar (BMG Labtech) plate reader.

[4] = biological target: SCTR (Homo sapiens, UniProt P47872); assay: hSCTR potency, cAMP accumulation in CHO-K1 cells stably overexpressing hSCTR; type: cell-based; set-up: alternatively Euroscreen ES-712-AF; FAST-0161L; host or cells: CHO-K1
SCTR, sequence (P47872 23-440): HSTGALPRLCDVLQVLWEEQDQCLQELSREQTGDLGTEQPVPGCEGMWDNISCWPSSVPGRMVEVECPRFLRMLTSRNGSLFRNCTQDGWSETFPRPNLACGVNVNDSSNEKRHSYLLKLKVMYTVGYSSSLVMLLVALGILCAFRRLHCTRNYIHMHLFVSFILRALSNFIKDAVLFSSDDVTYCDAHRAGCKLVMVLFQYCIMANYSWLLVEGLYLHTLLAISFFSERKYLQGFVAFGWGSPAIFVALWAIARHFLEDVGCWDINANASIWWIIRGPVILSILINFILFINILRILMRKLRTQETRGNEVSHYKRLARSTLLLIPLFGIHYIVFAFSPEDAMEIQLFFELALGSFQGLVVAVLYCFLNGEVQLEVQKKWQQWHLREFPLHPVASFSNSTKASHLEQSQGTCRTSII
From the text: as §2, §3
as §4, with “Frozen division arrested CHO-K1 cells stably overexpressing the hSCTR were obtained from PerkinElmer (ES-712-AF). Alternatively, a CHO-K1” for “A CHO-K1”, “the hSCTR” for “the hGLP1R”, “Euroscreen (FAST-0161L),” for “Euroscreen (FAST-0145L),”, “human secretin” for “human GLP-1(7-36)”

[5] = biological target: human secretin receptor (hSCTR) (human, UniProt P47872 23-440); assay: cell-based or functional assay
human secretin receptor (hSCTR), sequence (P47872 23-440): as above

| Molecule | Fibril formation [1] | Turbidity (pH 7) [2] | SCTR EC50/GLP1R EC50 ratio [3] | pEC50 hSCTR [5] | also measured |
| --- | --- | --- | --- | --- | --- |
| CC(C)C[C@H](NC(=O)[C@H](Cc1ccccc1)NC(=O)[C@H](CCCNC(=N)N)NC(=O)[C@H](CCC(N)=O)NC(=O)[C@H](CC(C)C)NC(=O)C(C)(C)NC(=O)[C@H](C)NC(=O)[C@H](CCC(=O)O)NC(=O)[C@H](CCC(=O)O)NC(=O)[C@H](CCCCNC(=O)COCCOCCNC(=O)COCCOCCNC(=O)CC[C@H](NC(=O)CCCCCCCCCCCCCCCCCCC(=O)O)C(=O)O)NC(=O)[C@H](CC(C)C)NC(=O)[C@H](Cc1c[nH]c2ccccc12)NC(=O)[C@H](CO)NC(=O)[C@@H](NC(=O)[C@H](CC(=O)O)NC(=O)[C@H](CO)NC(=O)[C@@H](NC(=O)[C@H](Cc1ccccc1)NC(=O)[C@@H](NC(=O)CNC(=O)[C@H](CCC(=O)O)NC(=O)C(C)(C)NC(=O)[C@@H](N)Cc1c[nH]cn1)[C@@H](C)O)[C@@H](C)O)C(C)C)C(=O)N[C@@H](CCC(=O)O)C(=O)N[C@@H](Cc1c[nH]cn1)C(=O)N[C@@H](CC(C)C)C(=O)N[C@H](C(N)=O)C(C)C [compound 174] (H-H[Aib]EGTFTSDVSWLK([AEEA-AEEA-γGlu-C20 diacid])EEA[Aib]LQRFLEHLV-NH2) | 3729 | 0.08 | 7022 | – | EC50 ([3]; cAMP accumulation, CHO-K1 cells overexpressing hGLP1R, read-out: hGLP1R pEC50 (converted)): 0.0126 nM; EC50 ([4]; cAMP accumulation, CHO-K1 cells overexpressing hSCTR, read-out: hSCTR pEC50 (converted)): 100 nM |
| CC(C)C[C@H](NC(=O)[C@H](Cc1ccccc1)NC(=O)[C@H](CCCNC(=N)N)NC(=O)[C@H](CCC(N)=O)NC(=O)[C@H](CC(C)C)NC(=O)C(C)(C)NC(=O)[C@H](C)NC(=O)[C@H](CCC(=O)O)NC(=O)[C@H](CCC(=O)O)NC(=O)[C@H](CCCCNC(=O)COCCOCCNC(=O)COCCOCCNC(=O)CC[C@H](NC(=O)CCCCCCCCCCCCCCCCCCC(=O)O)C(=O)O)NC(=O)[C@H](CC(C)C)NC(=O)[C@H](Cc1ccc(O)cc1)NC(=O)[C@H](CO)NC(=O)[C@@H](NC(=O)[C@H](CC(=O)O)NC(=O)[C@H](CO)NC(=O)[C@@H](NC(=O)[C@H](Cc1ccccc1)NC(=O)[C@@H](NC(=O)CNC(=O)[C@H](CCC(N)=O)NC(=O)C(C)(C)NC(=O)[C@@H](N)Cc1c[nH]cn1)[C@@H](C)O)[C@@H](C)O)C(C)C)C(=O)N[C@@H](CCC(=O)O)C(=O)N[C@@H](Cc1c[nH]cn1)C(=O)N[C@@H](CC(C)C)C(=O)N[C@H](C(N)=O)C(C)C [compound 156] (H-H[Aib]QGTFTSDVSYLK([AEEA-AEEA-γGlu-C20 diacid])EEA[Aib]LQRFLEHLV-NH2) | 3949 | 0.08 | 2941711 | – | – |
| 216 (GUB06-046) (H[Aib]EGTFTSDLSRLLEGAALQRFIQWLV-NH2; N-terminus assumed; SMILES CC[C@H](C)[C@H](NC(=O)[C@H](Cc1ccccc1)NC(=O)[C@H](CCCNC(=N)N)NC(=O)[C@H](CCC(N)=O)NC(=O)[C@H](CC(C)C)NC(=O)[C@H](C)NC(=O)[C@H](C)NC(=O)CNC(=O)[C@H](CCC(=O)O)NC(=O)[C@H](CC(C)C)NC(=O)[C@H](CC(C)C)NC(=O)[C@H](CCCNC(=N)N)NC(=O)[C@H](CO)NC(=O)[C@H](CC(C)C)NC(=O)[C@H](CC(=O)O)NC(=O)[C@H](CO)NC(=O)[C@@H](NC(=O)[C@H](Cc1ccccc1)NC(=O)[C@@H](NC(=O)CNC(=O)[C@H](CCC(=O)O)NC(=O)C(C)(C)NC(=O)[C@@H](N)Cc1c[nH]cn1)[C@@H](C)O)[C@@H](C)O)C(=O)N[C@@H](CCC(N)=O)C(=O)N[C@@H](Cc1c[nH]c2ccccc12)C(=O)N[C@@H](CC(C)C)C(=O)N[C@H](C(N)=O)C(C)C) | 11040 | 0.48 | – | – | – |
| CC[C@H](C)[C@H](NC(=O)[C@H](Cc1ccccc1)NC(=O)[C@H](CCCNC(=N)N)NC(=O)[C@H](CCC(N)=O)NC(=O)[C@H](CC(C)C)NC(=O)[C@H](C)NC(=O)[C@H](C)NC(=O)CNC(=O)[C@H](CCC(=O)O)NC(=O)[C@H](CC(C)C)NC(=O)[C@H](CC(C)C)NC(=O)[C@H](CCC(=O)O)NC(=O)[C@H](CO)NC(=O)[C@H](CC(C)C)NC(=O)[C@H](CC(=O)O)NC(=O)[C@H](CO)NC(=O)[C@@H](NC(=O)[C@H](Cc1ccccc1)NC(=O)[C@@H](NC(=O)CNC(=O)[C@H](CCC(=O)O)NC(=O)C(C)(C)NC(=O)[C@@H](N)Cc1c[nH]cn1)[C@@H](C)O)[C@@H](C)O)C(=O)N[C@@H](CCC(N)=O)C(=O)N[C@@H](Cc1c[nH]c2ccccc12)C(=O)N[C@@H](CC(C)C)C(=O)N[C@H](C(N)=O)C(C)C [compound 224] (H-H[Aib]EGTFTSDLSELLEGAALQRFIQWLV-NH2) | – | – | – | – | Selectivity ([3]; SCTR EC50/GLP1R EC50 ratio, Table 4, position X12 variants of GUB06-046): 120; EC50 ([3]; Table 4, position X12 variants of GUB06-046, read-out: pEC50 hGLPR1 (converted)): 0.0126 nM; EC50 ([4]; Table 4, position X12 variants of GUB06-046, read-out: pEC50 hSCTR (converted)): 1.58 nM |
| B1 | – | – | – | 8.2 -log M | – |
| B2 | – | – | – | 8.8 -log M | – |
